Earlier results on 16 substances are cited in paper PMC2600787, “Flanking p10 contribution and sequence bias in matrix based epitope prediction: revisiting the assumption of independent binding pockets” (BMC Structural Biology, 2008).

The test system of the first series is HLA-DR1. Further details: method as in 2 sources, ref Geluk et al. [32] ||| ref [32] = [32]; PMID 9753297; doi:10.2337/diabetes.47.10.1594; Geluk A van Meijgaarden KE Schloot NC Drijfhout JW Ottenhoff TH Roep BO HLA-DR binding analysis of peptides from islet antigens in IDDM Diabetes 1998 47 1594 1601 9753297 10.2337/diabetes.47.10.1594; pIC50exp: unit not given here. The note with it: according to IC50 binding measurements; ref [32]. From the text:
Anchor residues at dominant pockets p1, p4, p6 and p9 are as expected for DR1 [12].
Turning to “SCSKVDVNYAFLHATDLLPA [peptide 9, 20-mer peptide from GAD65]”, the “binding to DR1 (in words)” value is on record as “strong binder”.

The same series, now with this note: experimental binding affinity to HLA-DR1; logarithmic transform of IC50; 20-mer peptides from GAD65 (1 through 100) and ICA69 (101 and above), pruned to remove poor binders; ref Geluk et al. [32].
Consider “QCRTEYRGALLWMKDVSQEL [peptide 117, 20-mer peptide from ICA69]”, for which the pIC50exp is 1.10.
For “SVVNKMQQRYWETKQAFIKA [peptide 103, 20-mer peptide from ICA69]”, the pIC50exp is given as 1.00.
Take “LVSATAGTTVYGAFDPLLAV [peptide 33, 20-mer peptide from GAD65]”: the pIC50exp is on record as 0.05.
As to “FRKVQTQVRLAKKNFDKLKM [peptide 120, 20-mer peptide from ICA69]”, the pIC50exp is 0.00.
As to “RKESSSFKTEDGKSILSALD [peptide 132, 20-mer peptide from ICA69]”, the pIC50exp is recorded as 0.52.
On to “YVVKSFDRSTKVIDFHYPNE [peptide 13, 20-mer peptide from GAD65]”, for which the pIC50exp is -0.77.
“DPDLYKQMEKFRKVQTQVRL [peptide 119, 20-mer peptide from ICA69]”: the pIC50exp is on record as 0.22.
Turning to “SCSKVDVNYAFLHATDLLPA [peptide 9, 20-mer peptide from GAD65]”, the pIC50exp was 1.52.
As to “115: 20-mer peptide from ICA69 (VETFRHRAISDTWLTVNRME) [compound 115]”, the pIC50exp was 1.10.
In the case of “MASPGSGFWSFGSEDGSGDS [peptide 1, 20-mer peptide from GAD65]”, the pIC50exp is given as -0.70.
On to “LQDVMNILLQYVVKSFDRST [peptide 12, 20-mer peptide from GAD65]”, for which the pIC50exp was -0.60.
Regarding “AIHESFKGYQPYEFTTLKSL [peptide 126, 20-mer peptide from ICA69]”, the pIC50exp is 0.10.

In the next series the target is HLA-DRB3*0101 (HLA-DR52a) (Homo sapiens, UniProt P01903+P79483). As to conditions: earlier structural and binding studies; crystallography CSP, unpublished; ref not given. An excerpt:
Results from structural and binding studies using the peptide […] in complex with HLA-DRB3*0101 (HLA-DR52a) show a contribution from position p10. 24-[…]-39, from the N-terminus of human […] is a major ligand of DR52a. A natural variant of the epitope widely distributed in the population is 24-[…]-39. The Leu33/Pro33 dimorphism is the basis of the unidirectional alloimmune posttransfusion thrombocytopenia purpura (PTP) and fetal-maternal alloimmune thrombocytopenia (FMAIT), severe blood disorders in some DR52a subjects homozygous in Pro33 [[2 ...
As to AWCSDEALPPGSPRCD, the “binding to DR52a (in words)” value was “does not bind”.
Turning to “AWCSDEALPPGS [shorter Pro33 integrin peptide]”, the “binding to DR52a (in words)” value was “does not bind”.
“AWCSDEALPLGSPRCD [peptide from the N-terminus of human integrin α2βIIIa, a major ligand of DR52a]”: the “binding to DR52a (in words)” value is “major ligand”.
For the substance “AWCSDEALPPLS [Pro33 integrin peptide with leucine replacing glycine at position 10]”, the “binding to DR52a (in words)” value is recorded as “has been demonstrated to bind”.
